{"source": "patent US20120046272A1", "about": "“Novel Therapeutic Compounds” (GRUNENTHAL GMBH, priority 2010, published 2012)", "test_system": "mice", "assay": "Hot plate model of acute thermal pain", "format": "in vivo", "conditions": "hot plate 46.0° C.±1.0° C, tested prior to and 30 min after drug administration, cut-off 120 s", "procedure": "The device consisted of an electrically heated surface and an open plexiglass tube (34 cm high×44 cm diameter), as per the hot plate test adapted from Eddy and Leimbach (1953); The animals were confined to the heated surface. The temperature was kept at 46.0° C.±1.0° C. Mice were placed on the hot plate, and the time, recorded with a stopwatch, until either licking of the hind paw or jumping were initiated. Animals were tested prior to and 30 min after drug administration. The pre-drug latencies were between 17 and 45 s. The maximum possible effect (MPE) was defined as the lack of a nociceptive response during the exposure to the heat stimulus. The percentage of MPE was calculated according to the formula: [(T1−T0)/(T2−T0)]×100, where T0 and T1 were the latencies obtained before and after drug injection, and T2 was the cut-off time (120 s).\nData are expressed as mean (±SEM) % MPE. p<0.05 versus vehicle control.", "data": [{"compound": "CCC(c1cccc(OC(=O)CC2(CN)CCCCC2)c1)C(C)CN(C)C", "note": "(centres unmarked) [Compound of Formula 25]", "values": [{"measurement": "antinociception in hot plate test (% MPE)", "value": "induced dose-dependent antinociception and reached full efficacy"}]}, {"compound": "CN1CC[C@]23c4c5ccc(O)c4O[C@H]2[C@@H](O)C=C[C@H]3[C@H]1C5", "note": "[morphine]", "values": [{"measurement": "antinociception in hot plate test (% MPE)", "value": "induced dose-dependent antinociception and reached full efficacy"}]}]}
